Source: patent US20040175378A1, “Selected antibody compositions and methods for binding to aminophospholipids” (Board of Regents, The University of Texas System, priority 2002, published 2004)

How the values were obtained:
ABAE cells = assay: PS exposure by 125I-annexin V binding; assay type: cell-based, bovine; settings: 24 h
Procedure: (§1) All reagents were diluted in medium containing 10% serum and incubated with the cells at 37° C. for 24 h.
(§2) To study the effect of hypoxia, cells were seeded on 24 well plates and were incubated in a humidified normoxic atmosphere (21% O2, 5% CO2) for 48 h before being transferred to a humidified hypoxic atmosphere (1% O2, 5% CO2, 94% N2) in a sealed chamber (Billups Rothenberg Inc., Del Mar, Calif.). Cells were incubated in a hypoxic chamber for 24 h at 37° C. and were then returned to a normoxic environment for 4 h at 37° C. The cells were compared to a parallel culture from an identical passage, seeded on the same day and maintained entirely under normoxic conditions. In some studies, IL-1α (10 ng/ml) and TNFα (20 ng/ml) were added to the medium before transfer to the hypoxic chamber.
(§3) After treatment with the reagents described above, treated and control cells were incubated with 7.1 pmoles of ^125I-labeled annexin V (200 μl/well) in the binding buffer. After 2 h incubation at room temperature, cells were washed extensively and dissolved in 0.5 M of NaOH. The entire volume of 0.5 ml was transferred to plastic tubes and counted in a gamma counter. Non-specific binding was determined in the presence of 5 mM EDTA and was subtracted from experimental values. The results were expressed as net pmoles of cell-bound annexin V, normalized per 1×10^6 cells.
(§4) Maximal binding of annexin V was determined on cells simultaneously treated with actinomycin D and TNFα (50 ng/ml of each component). As has been previously reported, these agents cause apoptosis and PS exposure in 90-100% of endothelial cells (Lucas et al., 1998). Basal binding of ^125I-annexin V to untreated cells was determined in the presence of medium with 10% serum. The amount of ^125I-annexin V that bound to the untreated cultures was subtracted from that in the treated cultures. Exposure of PS was calculated according to the following formula: cell-bound annexin V (pmoles) under experimental conditions divided by maximal annexin V binding (pmoles), multiplied by 100. Each study was performed in duplicate and was performed at least three times. Mean values were calculated. The SE of the mean values from three separate experiments was less than 5%.

bEnd.3 cells = assay: PS exposure by 125I-annexin V binding; assay type: cell-based, Mouse; settings: bEnd.3, 24 h
Procedure: as §1, §2, §3, §4

HUVEC and HMVEC = assay: Induction of PS exposure on endothelial cells, FACS of 3G4 binding; assay type: cell-based, Human; settings: 10 nM, 24 hrs
Procedure: (§5) FIG. 24A and FIG. 24B. Induction of PS exposure on endothelial cells by docetaxel. Human umbilical vein endothelial cells (HUVEC) and human microvessel endothelial cells (HMVEC) were treated with 10 nM of docetaxel for 24 hrs. […] The cells were then washed twice, FITC labeled goat anti-mouse IgG was added and the cells incubated for a further 30 mins. on ice. The cells were then washed and analyzed by FACS using a FACSCalibur cytometer (Becton-Dickinson, San Jose, Calif.) with CellQuest acquisition software.
The induction of PS exposure on endothelial cells by subclinical concentrations of docetaxel was examined in vitro by FACS analysis. Human umbilical vein endothelial cells (HUVEC) and human microvessel endothelial cells (HMVEC) were treated with 10 nM of docetaxel for 24 hrs and examined by FACS. […] Docetaxel incubations for 48 and 72 hrs were also conducted.

[1] = system: 3LL, Colo26 and MDA-MB-435 cells; assay: Induction of PS exposure on tumor cell lines, FACS of 3G4 binding; assay type: cell-based; settings: 10 nM, 24 hrs, Colo26, MDA-MB-435
Procedure: as §5, with “25A, FIG. 25B” for “24A”, “25C.” for “24B.”, “tumor cell lines” for “endothelial cells”, “Mouse lewis lung carcinoma 3LL, mouse colon carcinoma Colo26” for “Human umbilical vein endothelial cells (HUVEC)”, “breast cancer MDA-MB-435” for “microvessel endothelial”, “cells” for “cells (HMVEC)”
The in vitro induction of PS exposure by subclinical concentrations of docetaxel was also examined by FACS analysis using a panel of tumor cell lines. Mouse lewis lung carcinoma 3LL, mouse colon carcinoma Colo26 and human breast cancer MDA-MB-435 cells were treated with 10 nM of docetaxel for 24 hrs and examined by FACS. […] Docetaxel incubations for 48 and 72 hrs were also conducted.

[2] = progressive disease before treatment; cited from earlier work
bEnd.3 endothelial cells = assay: PS translocation and viability of bEnd.3 cells treated with H2O2; settings: low levels of H2O2
[3] = system: tumor vascular endothelium of MDA-MB-435 tumors; assay: Localization of biotinylated ch3G4 in tumors; assay type: in vivo, mice; settings: i.v., one hour
Procedure: Localization of ch3G4 was examined in MDA-MB-435 human breast cancer cells growing in mice. Mice were injected intravenously with biotinylated ch3G4 or control IgG of irrelevant specificity. One hour later, the mice were exsanguinated, and their tumors were removed and frozen sections were cut. Biotinylated reagents were first incubated with streptavidin-Cy3 conjugate, washed in PBS, then incubated with MECA 32 antibody followed by FITC-tagged secondary antibody. Single images, taken with appropriate filters for Cy3 (red) and FITC (green) fluorescence respectively, were captured by digital camera and transferred to a computer.

[4] = system: Vaccinia virus-infected U937 cells; assay type: cell-based; settings: day 2 after infection, m.o.i. 2
[5] = Binding of chimeric 3G4 to phospholipid-coated ELISA plates
From the text: FIG. 21. […] Phospholipids (PS, PI, PE, PC, SM, CL, PG and PA) were adsorbed to plastic of microtiter plates.

[6] = system: orthotopic MDA-MB-435 breast cancer; assay: 3G4 and ch3G4 tumor treatment; assay type: in vivo, mice; settings: i.p. 800 μg day 15, 200 μg every two to three days, 400 μg day 35
Procedure: Tumors were also established using MD-MBA-435s cells and treated as described above. […] The treatment of large L540 tumors, MDA-MB-231 and MD-MBA-435s tumor cells for 60 days is shown in FIG. 8D, FIG. 8E and FIG. 8F. The antibodies caused tumor vascular injury, thrombosis and necrosis and retarded tumor growth, with no evidence of toxicity.
MD-MBA-435s lucerifase cells were obtained from Dr. Angels Sierra Jimenez, Barcelona, Spain and were grown in 10% DMEM. Mice were injected with tumor cells as described as above, and at 2 weeks post injection, the tumors were measured and the volume recorded. […] Treatment was initiated by IP injection (800 μg) at day 15 and continued with injections of 200 μg every two to three days until the final injection of 400 μg at day 35. Tumor volumes and mouse body weights were measured on injection days. Mice were sacrificed and perfused with saline for 12 minutes. The organs and tumor were removed, snap-frozen in liquid nitrogen and the tumor sectioned for immunohistochemistical analysis.

mCMV RVG102 = assay: Survival of mCMV-infected mice; assay type: in vivo, Balb/C mice; settings: 1 mg/mouse i.p. day 1, 0.5 mg/mouse every four days until day 26; past 90 days

Molecule: Thrombin
- ^125I-Annexin V (% of Max binding) (ABAE cells; 50 nM): 8.8%
- ^125I-Annexin V (% of Max binding) (bEnd.3 cells; 50 nM): 17.4%

Molecule: CC(=O)O[C@@]12CO[C@@H]1C[C@H](O)[C@@]1(C)C(=O)[C@H](O)C3=C(C)[C@@H](OC(=O)[C@H](O)[C@@H](NC(=O)OC(C)(C)C)c4ccccc4)C[C@@](O)([C@@H](OC(=O)c4ccccc4)[C@H]21)C3(C)C [docetaxel]
- 3G4 binding as compared to untreated cells (HUVEC and HMVEC): significant increase in 3G4 binding
- 3G4 binding as compared with untreated cells [1]: significant increase in 3G4 binding

Molecule: FGF-2: human fibroblast growth factor-2
- ^125I-Annexin V (% of Max binding) (ABAE cells; 20 ng/ml): 0%
- ^125I-Annexin V (% of Max binding) (bEnd.3 cells; 20 ng/ml): 0%

Molecule: NC(=O)c1nnn(Cc2cc(Cl)c(C(=O)c3ccc(Cl)cc3)c(Cl)c2)c1N [CAI, carboxyamidotriazole]
- cancer patients with disease stabilization [2]: 49%

Molecule: OO [Hydrogen peroxide, hydrogen peroxide]
- cell viability (bEnd.3 endothelial cells): 95%

Molecule: ch3G4: human-mouse chimeric 3G4: murine variable regions on human γ1 and κ constant regions, expressed in CHO cells
- localization to tumor vascular endothelium [3]: binds to the tumor vascular endothelium
- binding to virus-infected vs uninfected cells (FACS) [4]: significant shift
- binding to phospholipid-coated ELISA plates [5]: bound at least as did well as the murine 3G4
- tumor growth as opposed to control [6]: effectively retarded tumor growth
- survival (mCMV RVG102): 80%

Molecule: TNFα
- ^125I-Annexin V (% of Max binding) (ABAE cells; 20 ng/ml): 7.4%
- ^125I-Annexin V (% of Max binding) (bEnd.3 cells; 20 ng/ml): 13.7%

Molecule: IL-6: interleukin-6
- ^125I-Annexin V (% of Max binding) (ABAE cells; 20 ng/ml): 0%
- ^125I-Annexin V (% of Max binding) (bEnd.3 cells; 20 ng/ml): 0%

Molecule: IL-10: interleukin-10
- ^125I-Annexin V (% of Max binding) (ABAE cells; 20 ng/ml): 0%
- ^125I-Annexin V (% of Max binding) (bEnd.3 cells; 20 ng/ml): 0%

Molecule: VEGF
- ^125I-Annexin V (% of Max binding) (ABAE cells; 20 ng/ml): 0%
- ^125I-Annexin V (% of Max binding) (bEnd.3 cells; 20 ng/ml): 0%

Molecule: Scatter factor: recombinant hepatocyte growth factor
- ^125I-Annexin V (% of Max binding) (ABAE cells; 40 ng/ml): 0%
- ^125I-Annexin V (% of Max binding) (bEnd.3 cells; 40 ng/ml): 0%

Molecule: Interferon
- ^125I-Annexin V (% of Max binding) (ABAE cells; 40 ng/ml): 8.6%
- ^125I-Annexin V (% of Max binding) (bEnd.3 cells; 40 ng/ml): 2.8%

Molecule: IL-8: interleukin-8
- ^125I-Annexin V (% of Max binding) (ABAE cells; 20 ng/ml): 0%
- ^125I-Annexin V (% of Max binding) (bEnd.3 cells; 20 ng/ml): 0%

Molecule: TGF β1: growth factor
- ^125I-Annexin V (% of Max binding) (ABAE cells; 20 ng/ml): 0%
- ^125I-Annexin V (% of Max binding) (bEnd.3 cells; 20 ng/ml): 0%

B1: IL-1β: recombinant murine interleukin-1 beta (protein, UniProt P10749 118-269, looked up)
Interleukin-1 beta: VPIRQLHYRLRDEQQKSLVLSDPYELKALHLNGQNINQQVIFSMSFVQGEPSNDKIPVALGLKGKNLYLSCVMKDGTPTLQLESVDPKQYPKKKMEKRFVFNKIEVKSKVEFESAEFPNWYISTSQAEHKPVFLGNNSGQDIIDFTMESVSS
- ^125I-Annexin V (% of Max binding) (ABAE cells; 10 ng/ml): 5.8%
- ^125I-Annexin V (% of Max binding) (bEnd.3 cells; 10 ng/ml): 5.5%

B2: IL-1α: recombinant murine interleukin-1 alpha (protein, UniProt P01582 115-270, looked up)
Interleukin-1 alpha: SAPYTYQSDLRYKLMKLVRQKFVMNDSLNQTIYQDVDKHYLSTTWLNDLQQEVKFDMYAYSSGGDDSKYPVTLKISDSQLFVSAQGEDQPVLLKELPETPKLITGSETDLIFFWKSINSKNYFTSAAYPELFIATKEQSRVHLARGLPSMTDFQIS
- ^125I-Annexin V (% of Max binding) (ABAE cells; 10 ng/ml): 6.4%
- ^125I-Annexin V (% of Max binding) (bEnd.3 cells; 10 ng/ml): 7.5%
